Legend:
[1] = target: T1, Human HDAC7 (Homo sapiens, UniProt Q8WUI4); experiment: In vitro HDAC7 inhibition, fluorogenic peptide assay; format: biochemical; conditions: for IC50: read-out: IC50 (nM) of enzyme activity HDAC7
T1 construct: Amino acids 518-end with N-terminal GST tag, MW=78 kDa; GST (N); purchased BioMol, Hamburg, Germany
T1 sequence (Q8WUI4 518-952 limits assumed): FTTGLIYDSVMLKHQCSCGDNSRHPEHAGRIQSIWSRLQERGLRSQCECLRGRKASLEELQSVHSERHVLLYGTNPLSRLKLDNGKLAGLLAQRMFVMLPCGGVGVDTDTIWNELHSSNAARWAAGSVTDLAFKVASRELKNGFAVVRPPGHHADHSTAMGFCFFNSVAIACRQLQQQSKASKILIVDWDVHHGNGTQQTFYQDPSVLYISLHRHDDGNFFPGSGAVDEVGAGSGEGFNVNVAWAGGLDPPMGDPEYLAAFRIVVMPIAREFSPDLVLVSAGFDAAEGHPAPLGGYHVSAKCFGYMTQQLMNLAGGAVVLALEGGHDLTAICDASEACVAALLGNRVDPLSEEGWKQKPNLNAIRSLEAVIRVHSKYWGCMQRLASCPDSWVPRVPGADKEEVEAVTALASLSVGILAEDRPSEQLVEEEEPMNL
Description: All HDAC assays were performed using acetylated AMC-labeled peptide substrate: • Substrate for isoforms HDAC1, 2, 3, 4, 5, 6, 7, 9, 10, 11 and HeLa nuclear extract assays: Acetylated fluorogenic peptide from p53 residues 379-382 (RHKKAc) (BioMol. Cat. # KI-104). • Substrate for HDAC8 assays: Acetylated fluorogenic peptide from p53 residues 379-382 (RHKAcKAc) (BioMol. Cat. # KI-178).
Enzymes: • HDAC1 assay: 75 nM Human HDAC1 (GenBank Accession No. NM_004964): Full length with C-terminal GST tag, MW=79.9 kDa, expressed by baculovirus expression system in Sf9 cells (BioMol. Cat. # SE-456). • HDAC2 assay: 5 nM Human HDAC2 (GenBank Accession No. Q92769): Full length with C-terminal His tag, MW=60 kDa, expressed by baculovirus expression system in Sf9 cells (BioMol. Cat. # SE-500). • HDAC3 assay: 2.3 nM Human HDAC3/NcoR2 (GenBank Accession No. NM_003883 for HDAC3, GenBank Accession No.NM_006312 for NcoR2): Complex of human HDAC3, full length with C-terminal His tag, MW=49.7 kDa, and human NCOR2, N-terminal GST tag, MW=39 kDa, co-expressed in baculovirus expression system (BioMol. Cat. # SE-507). • HDAC4 assay: 266 nM Human HDAC4 (GenBank Accession No. NM_006037): Amino acids 627-1085 with N-terminal GST tag, MW=75.2 kDa, expressed in baculovirus expression system (BioMol, Hamburg, Germany). • HDAC5 assay: 588 nM Human HDAC5 (GenBank Accession No. NM_001015053): Full length with Nterminal GST tag, MW=150 kDa, expressed by baculovirus expression system in Sf9 cells (BioMol, Hamburg, Germany). • HDAC6 assay: 13 nM Human HDAC6 (GenBank Accession No. BC069243): Full length with N-terminal GST tag, MW=159 kDa, expressed by baculovirus expression system in Sf9 cells (BioMol. Cat. # SE-508). • HDAC7 assay: 962 nM Human HDAC7 (GenBank Accession No. AY302468): Amino acids 518-end with N-terminal GST tag, MW=78 kDa, expressed in baculovirus expression system (BioMol, Hamburg, Germany). • HDAC8 assay: 119 nM Human HDAC8 (GenBank Accession No. NM018486): Full length, MW=42 kDa, expressed in an E. coli expression system (BioMol. […]
The reactions were carried out in a 96-well microplate for fluorometry in a 50 μl reaction volume. […] The reaction was allowed to develop for 45 minutes at 30° C. with 5% CO2; then the fluorescent signal was measured with an excitation wavelength at 360 nm and an emission wavelength at 460 nm in a microplate-reading fluorometer (GeminiXS; Molecular Devices, Sunnyvale, Calif.). […] IC50 was calculated by fitting the experimental data to a dose-response curve. […]

[2] = test system: MIAPaCa-2; experiment: Cancer cell growth inhibition (CellTiter-Glo), MIAPaCa-2; format: cell-based; conditions: Homo sapiens, MIA PaCa-2; Pancreatic Cancer, MIAPaCa-2, 72 h treatment
Description: Cell culture-based assays were used to evaluate the ability of compounds of the invention to inhibit cancer cell growth.
Cells were obtained from the American Type Culture Collection (ATCC). Cells were cultured at 37° C. with 5% CO2 in the appropriate growth medium (see table below), and harvested respectively during the logarithmic growth period and counted with hemocytometer. The cell viability was examined by trypan blue exclusion. Cell concentrations were adjusted to 5.56×10^4 cells/ml with respective medium.
Stock solutions of test compounds and positive drugs Doxorubicin (Zhejiang, Haizheng, China), Cisplatin (Nanjing Zhiyao, China) and Mitomycin (Zhejiang, Haizheng, China) were prepared in dimethyl sulphoxide (DMSO) or PBS at 20 mM.
In order to determine the IC50 for each compound, experiments were carried out in 96-well plates and the cell lines seeded at a density of 5,000 cells/well. […] All treatments were performed in triplicate. 10 μl of drug solution was added to each well and incubated for 72 hours. At the end of the incubation, 100 μl of the CellTiter-Glo Reagent were added to each well and the contents were mixed for 2 munites on an orbital shaker to induce cell lysis. The plate was incubated at room temperature for 10 minutes to stabilize luminiscent signal, and luminiscent was recorded. […] In order to calculate IC50 values, dose-responsive curves were fitted using nonlinear regression model with a sigmoidal dose response.

Selectivity against HDAC6 (IC50 HDACx/IC50 HDAC6) HDAC7 ([1]; IC50 HDAC7/IC50 HDAC6) | IC50 [1] [nM] | IC50 [2] [µM] | Compound
70.3 | 1410 | – | COc1ccc(-c2cc(-c3ccccc3)[nH]c2C(=O)NCCCCCC(=O)NO)cc1 [Compound A, N-[6-(hydroxyamino)-6-oxohexyl]-3-(4-methoxyphenyl)-5-phenyl-1H-pyrrole-2-carboxamide, reference compound]
– | 72 | 1.59 | O=C(CCCCCNC(=O)c1[nH]c(-c2ccc(O)cc2)cc1-c1ccoc1)NO [Example 5, 3-(3-furyl)-N-(5-(hydroxycarbamoyl)pentyl)-5-(4-hydroxy-phenyl)-1H-pyrrole-2-carboxamide]
– | 318 | 2.49 | O=C(CCCCCNC(=O)c1[nH]c(-c2ccc(O)cc2)cc1-c1ccsc1)NO [Example 6, N-(5-(hydroxycarbamoyl)pentyl)-5-(4-hydroxyphenyl)-3-(3-thienyl)-1H-pyrrole-2-carboxamide]
– | – | 4.08 | O=C(CCCCCNC(=O)c1[nH]c(-c2ccc(O)cc2)cc1-c1ccccc1)NO [Example 2, N-(6-(hydroxyamino)-6-oxohexyl)-5-(4-hydroxyphenyl)-3-phenyl-1H-pyrrole-2-carboxamide]
– | – | 2.75 | O=C(CCCCCNC(=O)c1[nH]c(-c2ccccc2)cc1-c1ccc(O)cc1)NO [Example 1, N-(6-(hydroxyamino)-6-oxohexyl)-3-(4-hydroxyphenyl)-5-phenyl-1H-pyrrole-2-carboxamide]

Source: patent US20150038545A1, “HYDROXYPHENYL PYRROLE COMPOUNDS CONTAINING AN HYDROXAMIC ACID AS HDAC INHIBITORS AND MEDICINAL APPLICATIONS THEREOF” (UNIVERSIDAD DEL PAÍS VASCO, priority 2011, published 2015)
